Data taken from patent publication US20150018311A1, “THERAPEUTIC BORON-CONTAINING COMPOUNDS” (priority 2012, published 2015).

How the values were obtained:
Type in all cases: cell-based
[1] = test system: Candida albicans ATCC90028 (wild type); assay: Filter paper disc antifungal assay on agar plates; details: 5 mm disc, 37° C. 24 hours
Description: (§1) Compound 22 (the chloride salt) of table 1 was dissolved and the solution applied to a filter paper disc of diameter 5 mm. The filter paper discs were placed on plates containing the following strains of Candida albicans:
ATCC90028 (“wild type”, i.e. not resistant to nystatin or fluconazole)
(§2) The compound was applied at concentrations of 0.5, 1, 5, 10, 25 and 50 μg/ml. Nystatin and fluconazole at the same concentrations were applied in the same manner. […] All strains were tested at least three times.
(§3) Clearly, the higher the number, the greater the antifungal activity.

[2] = test system: Candida albicans ATCC38247 (resistant to fluconazole); assay: Filter paper disc antifungal assay on agar plates; details: 5 mm disc, 37° C. 24 hours
Description: as §1
ATCC38247 (resistant to fluconazole)
as §2, §3

[3] = test system: Mycobacterium tuberculosis (H37Rv); assay: Growth in liquid media in presence of test compound
[4] = test system: Candida albicans (ATCC 90028); assay: as above
[5] = test system: Escherichia coli (ATCC 25922); assay: as above
[6] = test system: Pseudomonas aeruginosa (ATCC 27853); assay: as above
[7] = test system: Staphylococcus aureus (ATCC 25923); assay: as above
[8] = test system: Streptococcus pyogenes (ATCC 19615); assay: as above

| Structure (SMILES) | Growth in the presence of test compound, M. tuberculosis ([3]; 5 mg/L) | Growth in the presence of test compound, M. tuberculosis ([3]; 50 mg/L) | Growth in the presence of test compound, M. tuberculosis ([3]; 500 mg/L) | Growth in the presence of test compound, C. albicans ([4]; 5 mg/L) | Growth in the presence of test compound, C. albicans ([4]; 50 mg/L) | Growth in the presence of test compound, C. albicans ([4]; 500 mg/L) | Growth in the presence of test compound, E. coli ([5]; 5 mg/L) | Growth in the presence of test compound, E. coli ([5]; 50 mg/L) | Growth in the presence of test compound, E. coli ([5]; 500 mg/L) | Growth in the presence of test compound, P. aeruginosa ([6]; 5 mg/L) | Growth in the presence of test compound, P. aeruginosa ([6]; 50 mg/L) | Growth in the presence of test compound, P. aeruginosa ([6]; 500 mg/L) | Growth in the presence of test compound, S. aureus ([7]; 5 mg/L) | Growth in the presence of test compound, S. aureus ([7]; 50 mg/L) | Growth in the presence of test compound, S. aureus ([7]; 500 mg/L) | Growth in the presence of test compound, S. pyogenes ([8]; 5 mg/L) | Growth in the presence of test compound, S. pyogenes ([8]; 50 mg/L) | Growth in the presence of test compound, S. pyogenes ([8]; 500 mg/L) | also measured |
| --- | --- | --- | --- | --- | --- | --- | --- | --- | --- | --- | --- | --- | --- | --- | --- | --- | --- | --- | --- |
| OC(Cn1cncn1)(Cn1cncn1)c1ccc(F)cc1F [Fluconazole, reference compound] |  |  |  |  |  |  |  |  |  |  |  |  |  |  |  |  |  |  | diameter of the area which did not show any Candida growth ([1]; ATCC90028, 0.5 μg/ml): 7.33 millimeters; diameter of the area which did not show any Candida growth ([1]; ATCC90028, 1 μg/ml): 13.33 millimeters; diameter of the area which did not show any Candida growth ([1]; ATCC90028, 5 μg/ml): 21.33 millimeters; diameter of the area which did not show any Candida growth ([1]; ATCC90028, 10 μg/ml): 25.66 millimeters; diameter of the area which did not show any Candida growth ([1]; ATCC90028, 25 μg/ml): 30 millimeters; diameter of the area which did not show any Candida growth ([1]; ATCC90028, 50 μg/ml): 31.33 millimeters; diameter of the area which did not show any Candida growth ([2]; ATCC38247, 0.5 μg/ml): 5 millimeters; diameter of the area which did not show any Candida growth ([2]; ATCC38247, 1 μg/ml): 5 millimeters; diameter of the area which did not show any Candida growth ([2]; ATCC38247, 5 μg/ml): 5 millimeters; diameter of the area which did not show any Candida growth ([2]; ATCC38247, 10 μg/ml): 5 millimeters; diameter of the area which did not show any Candida growth ([2]; ATCC38247, 25 μg/ml): 5 millimeters; diameter of the area which did not show any Candida growth ([2]; ATCC38247, 50 μg/ml): 5 millimeters |
| CC1(C)C2CC3OB([C@@H](CNC(=O)[C@@H](N)Cc4ccccc4)Cc4ccc(F)cc4)O[C@]3(C)C1C2.Cl (stereo partly drawn) [Compound 49] | ± | − | − | + | + | + | + | + | + | + | + | + | + | + | + | + | + | + |  |
| Cl.Cl.NCCCC[C@H](N)C(=O)NC[C@@H](Cc1ccc(F)cc1)B(O)O [Compound 46] | − | − | − | + | + | ± | + | + | + | + | + | + | + | + | + | + | + | + |  |
| CC1(C)C2CC3OB([C@@H](CNC(=O)[C@@H](N)Cc4ccccc4)Cc4ccc(OC(F)(F)F)cc4)O[C@]3(C)C1C2.Cl (stereo partly drawn) [Compound 55] | − | − | − | + | + | ± | + | + | + | + | + | + | + | ± | + | + | ± | + |  |
| Cl.N[C@@H](Cc1ccccc1)C(=O)NC[C@@H](Cc1ccc(F)cc1)B(O)O [Compound 50] | ± | − | − | + | + | + | + | + | − | + | + | ± | + | + | − | + | + | − |  |
| CC1(C)C2CC3OB(CC(CCc4ccccc4)NC(=O)C(N)CCCCN)OC3(C)C1C2 (stereo not drawn) [Compound 7] | + | + | − | + | + | − | + | + | − | + | + | ± | + | + | − | + | + | − |  |
| CC1(C)C2CC3OB([C@H](CNC(=O)[C@@H](N)Cc4ccccc4)Cc4ccccc4)O[C@@]3(C)C1C2 (stereo partly drawn) [Compound 14] | + | − | − | + | ± | ± | + | + | + | + | + | − | + | + | + | + | + | ± |  |
| CC1(C)C2CC3OB(C(Cc4ccccc4)C(Cc4ccccc4)NC(=O)C(N)CCCCN)OC3(C)C1C2 (stereo not drawn) [Compound 31] | + | − | − | + | + | − | + | + | − | + | + | − | + | + | − | + | + | − |  |
